Tests used:
hMC-4R [1] = molecular target: T1, hMC-4R (Homo sapiens, UniProt P32245); assay: Membrane binding assay, competition with fluorescence labeled NDP-alpha-MSH (fluorescence polarization); set-up: expressed in transfected cells; host or cells: HEK293 cells (membrane preparations); conditions: HEK293 cell membrane preparations
hMC-4R [2] = molecular target: T1, hMC-4R; assay: Functional assay, cAMP formation in HEK293 membrane preparations (fluorescence polarization)

T1 sequence (P32245 whole entry): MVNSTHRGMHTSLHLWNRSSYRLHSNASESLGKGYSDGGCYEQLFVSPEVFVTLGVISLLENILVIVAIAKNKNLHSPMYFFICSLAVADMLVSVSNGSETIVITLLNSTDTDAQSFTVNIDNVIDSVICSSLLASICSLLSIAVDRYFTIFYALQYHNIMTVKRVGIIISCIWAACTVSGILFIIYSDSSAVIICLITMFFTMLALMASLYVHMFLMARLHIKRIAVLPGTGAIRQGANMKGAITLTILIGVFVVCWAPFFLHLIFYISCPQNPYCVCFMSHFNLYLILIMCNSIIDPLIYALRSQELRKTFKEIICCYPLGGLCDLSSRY

IC50 (hMC-4R [1]) | EC50 (hMC-4R [2]) | Compound
< 100 nM |  | CCOC(=O)c1nc2ccc(C(=O)N(CCC(C)C)CCC(C)C)cn2c1CCCN1CCCC1 [Example 1]
100 to 1000 nM |  | CC(C)CCN(CCC(C)C)C(=O)c1ccc2nc(C(=O)N3CCCC3)c(CCCN3CCCC3)n2c1 [Example 2]
100 to 1000 nM |  | CNC(=O)c1nc2ccc(C(=O)N(CCC(C)C)CCC(C)C)cn2c1CCCN1CCCC1 [Example 3]
100 to 1000 nM |  | CCNC(=O)c1nc2ccc(C(=O)N(CCC(C)C)CCC(C)C)cn2c1CCCN1CCCC1 [Example 4]
100 to 1000 nM |  | CC(C)CCN(CCC(C)C)C(=O)c1ccc2nc(CO)c(CCCN3CCCC3)n2c1 [Example 5]
100 to 1000 nM |  | CC(C)CCN(CCC(C)C)C(=O)c1ccc2nc(C3CC3)c(CCCN3CCCC3)n2c1 [Example 6]
100 to 1000 nM | 100 to 1000 nM | CC(C)CCN(CCC(C)C)C(=O)c1ccc2nc(C(=O)OC(C)C)c(CCCN3CCCC3)n2c1 [Example 7]
> 1000 nM | 100 to 1000 nM | CC(C)CCN(CCC(C)C)C(=O)c1ccc2nc(C#N)c(CCCN3CCCC3)n2c1 [Example 8]
< 100 nM | 100 to 1000 nM | COCc1noc(-c2nc3ccc(C(=O)N(CCC(C)C)CCC(C)C)cn3c2CCCN2CCCC2)n1 [Example 9]
< 100 nM | < 100 nM | Cc1noc(-c2nc3ccc(C(=O)N(CCC(C)C)CCC(C)C)cn3c2CCCN2CCCC2)n1 [Example 10]
100 to 1000 nM |  | CC(C)CCN(CCC(C)C)C(=O)c1ccc2nc(-c3nc(C(C)(C)O)no3)c(CCCN3CCCC3)n2c1 [Example 11]
< 100 nM |  | CC(C)CCN(CCC(C)C)C(=O)c1ccc2nc(-c3nc(C4CC4)no3)c(CCCN3CCCC3)n2c1 [Example 12]
100 to 1000 nM |  | CC(C)CCN(CCC(C)C)C(=O)c1ccc2nc(-c3n[nH]c(=O)n3C)c(CCCN3CCCC3)n2c1 [Example 13]
100 to 1000 nM |  | CCOC(=O)CCc1nc2ccc(C(=O)N(CCC(C)C)CCC(C)C)cn2c1CCCN(C)C [Example 14]
100 to 1000 nM |  | CCOC(=O)c1nc2ccc(C(=O)N(CCC(C)C)CCC(C)C)cn2c1CCCN(C)C [Example 15]
100 to 1000 nM |  | COCc1noc(-c2nc3ccc(C(=O)N(CCC(C)C)CCC(C)C)cn3c2CCCN(C)C)n1 [Example 16]
100 to 1000 nM |  | Cc1noc(-c2nc3ccc(C(=O)N(CCC(C)C)CCC(C)C)cn3c2CCCN(C)C)n1 [Example 17]
100 to 1000 nM | 100 to 1000 nM | CC(C)CCN(CCC(C)C)C(=O)c1ccc2nc(-c3nc(C(C)(C)O)no3)c(CCCN(C)C)n2c1 [Example 18]
< 100 nM |  | COCCOC(=O)c1nc2ccc(C(=O)N(CCC(C)C)CCC(C)C)cn2c1CCCN1CCCC1 [Example 19]
< 100 nM |  | CC(C)CCN(CCC(C)C)C(=O)c1ccc2nc(C(=O)OCC(C)C)c(CCCN3CCCC3)n2c1 [Example 20]
100 to 1000 nM |  | CC(C)CCN(CCC(C)C)C(=O)c1ccc2nc(N(C)c3ccccn3)c(CCCN3CCCC3)n2c1 [Example 21]
< 100 nM |  | CC(C)CCN(CCC(C)C)C(=O)c1ccc2nc(CNc3ccc4c(c3)OCO4)c(CCCN3CCCC3)n2c1 [Example 22]
100 to 1000 nM |  | COc1cccc(N(C)c2nc3ccc(C(=O)N(CCC(C)C)CCC(C)C)cn3c2CCCN2CCCC2)c1 [Example 23]
< 100 nM |  | CC(C)CCN(CCC(C)C)C(=O)c1ccc2nc(-c3ccc4nccn4c3)c(CCCN3CCCC3)n2c1 [Example 24]
< 100 nM |  | CC(C)CCN(CCC(C)C)C(=O)c1ccc2nc(CCCNC(=O)OC(C)(C)C)c(CCCN3CCCC3)n2c1 [Example 26]
< 100 nM | 100 to 1000 nM | CC(C)CCN(CCC(C)C)C(=O)c1ccc2nc(CCCN(C)C)c(CCCN3CCCC3)n2c1 [Example 27]
< 100 nM |  | CC(C)CCN(CCC(C)C)C(=O)c1ccc2nc(CCCN)c(CCCN3CCCC3)n2c1 [Example 28]
100 to 1000 nM |  | CC(C)CCN(CCC(C)C)C(=O)c1ccc2nc(C(=O)N3CCN(C)CC3)c(CCCN3CCCC3)n2c1 [Example 29]

— patent publication US20100324036A1, “SUBSTITUTED IMIDAZOPYRIDINE DERIVATIVES AS MELANOCORTIN-4 RECEPTOR ANTAGONISTS” (SANTHERA PHARMACEUTICALS (SCHWEIZ) AG, priority 2007, published 2010)
